Experimental data taken from patent publication US20120118175A1, “TREATMENT TO REDUCE MICROORGANISMS WITH CARBON DIOXIDE BY MULTIPLE PRESSURE OSCILLATIONS” (SAFEFRESH TECHNOLOGIES, LLC, priority 2004, published 2012).
Where “and” joins values, the source holds several entries; their conditions need not be identical. Equal values may be shown once.

Columns and labels:
E. coli 0157 = assay: Inoculated meat cubes treated with carbon dioxide in high pressure reactor, E. coli 0157 plate count; format: cell-based
Protocol: To carry out the experiments, a high pressure reactor was designed to the following specifications. • A vessel built to withstand about 3000 psig with top and bottom vents for the addition/venting of carbon dioxide gas as required. • An analog pressure gauge. • A digital temperature recorder on the top vent from the vessel. • A pH probe that could be raised/lowered into the center of the reactor top. • A supply of liquid carbon dioxide at about 300 psi and −20° C. • A supply of gaseous carbon dioxide heated to about 56° C. in a hot water bath. • A supplementary probe to measure the temperature of the reactor barrel surface. • Lap top computer to record temperature data.
FIG. 8 is a schematic illustration of laboratory equipment 800 used in carrying out various tests of the treatment of meat with carbon dioxide. The apparatus 800 includes pressure cylinders 804, 806, and 808 with high-pressure piping 824, pressure release safety valve 828 and on/off valves 812, 814, 816, 818, 820, and 822. Meat samples, having been inoculated, are suspended from a centrally located shaft within the cylinder 804 and the upper member 802 is bolted to the cylinder 804 in a manner that substantially ensures a leak-proof and pressure tight seal. A stream of fluid carbon dioxide 824 that progressively turns to liquid is transferred into the cylinder 804 until the suspended meat samples therein are immersed in the liquid carbon dioxide. After a recorded and selected period of time, the liquid carbon dioxide is removed from the cylinder 804 and the pressure therein reduced to ambient atmospheric pressure. The samples can then be removed from the cylinder and the reduction of bacteria population determined. The items 806 and 808 are commonly referred to as an intensifier. Opening valve 812 allows filling the cylinder 806 with low pressure fluid carbon dioxide, and then, after isolation of the lower pressure source of the fluid carbon dioxide, a piston in cylinder 808 is activated by hydraulic oil from line 826 (or high-pressure air or gas) and a smaller diameter piston in cylinder 806 compresses the fluid carbon dioxide and elevates the pressure. The higher pressure carbon dioxide fluid in line 824 is then transferred to cylinder 804 via a selected path through high-pressure piping 824 as shown.
Cell cultures were grown overnight in a nutrient broth. The cells were separated by centrifugation and washed in a sterile buffer. The E. coli cell suspension was then diluted to give log 7-9 cell per ml.
Meat was purchased at a local retail store. The meat was aseptically cut into 1 inch cubes and suspended by attachment to sterile fish hooks. Meat samples were then placed into an inoculation chamber where they were sprayed with about 10 mls of the cell inoculum. This was done ensuring that all 6 sides of each piece of meat received the same exposure to the E. coli. The samples were then allowed to stand for about 30 minutes at room temperature to achieve the attachment of the E. coli to the meat. One of these meat samples was immediately taken and analyzed for E. coli (as a control). The remaining inoculated samples were then placed into the reactor and the experiment started.
One (1) inch meat cube samples were suspended from the pH probe using small fishing hooks and line so that the cubes were suspended in the bottom third of the reactor and were neither touching each other nor the walls of the vessel.
(§1) Each meat sample was placed into a sterile bag and weighed, a known volume of sterile buffer was added as a diluent and the meat sample homogenized in a ‘Stomacher’. This suspension was then further diluted as 1:10 dilutions and duplicate 1 ml samples were plated onto the surface of agar media formulated for the enumeration of E. coli 0157. The bacterial levels were recorded as colony forming units CFU per g. or as log 10 of that number.
The methodology was as stated above. The reactor contained inoculated meat. […]

Meat Normal Flora = assay: Un-inoculated meat exposed to CO2 in a supercritical fluid extractor, bacterial plate count; format: cell-based; conditions: for CFU/g / Logs: control 7.53 logs, listed as CO2
Protocol: as §1
The above experiments used the most exacting conditions available given the reactor equipment. The survival of natural microflora of meat when treated with carbon dioxide in the super critical range was also investigated.
In the Dairy Science chemistry research lab in Call Hall (KSU), equipment is available to achieve temperatures and pressures above the critical point of carbon dioxide (a Pepmaster GA made by the Suprex Corp.). This device is mainly used for lipid extraction from natural materials prior to further analysis.
The tests were undertaken to determine the efficacy of supercritical carbon dioxide using laboratory equipment shown schematically in FIGS. 8 and 9.
The sample cells 2 in parallel hold about 4 gr of sample which is sufficient to do microbial analysis and the equipment could control pressure up to about 7500 psig, temperature (above ambient), and time. Introduction of E. coli 0157 meat into the lab was not possible. […]

[1] = Experiment 1: 300-1000 psi, 10 min
[2] = Experiment 3: 1000 psi @ 13° C. held 4 hours, analyzed immediately, control 7.87 logs, listed as Liquid CO2
[3] = Experiment 4: 1470 psi @ 29° C., 5 min
[4] = Experiment 4: 3000 psi @ 29° C., 5 min

O=C=O [carbon dioxide]
average of the 3 test samples (E. coli 0157; [1]): 7.22 log | log reduction versus control (E. coli 0157; [1]): 0.47 log | average of the test samples (E. coli 0157; Experiment 2: -17° C. at 300 psig, then 1000 psig 5 min): 6.5 log | log reduction versus control (E. coli 0157; Experiment 2: -17° C. at 300 psig, then 1000 psig 5 min, meat frozen, listed as Liquid CO2): ~1 log and 1.27 log | CFU/g (E. coli 0157; [2]): 8,741,258.7 CFU/g and 14,344,362.3 CFU/g and 8,467,741.9 CFU/g | Logs (E. coli 0157; [2]): 6.94 Logs and 7.16 Logs and 6.93 Logs | log reduction versus control (E. coli 0157; Experiment 3: 1000 psig 4 hours, analyzed immediately): ~1 log and 0.86 log | further log kill by storage (E. coli 0157; Experiment 3: storage in about 100% carbon dioxide at about 4° C. for 4 days after treatment): 2.83 log | destruction of E. coli 0157 on meat surfaces (E. coli 0157; liquid carbon dioxide in the sub critical range alone): no practical significance | log kill with liquid carbon dioxide (E. coli 0157; liquid carbon dioxide, experiment not specified): ~0.5 log | log bacteria reduction versus control (Meat Normal Flora; Experiment 4: 1470 psi @ 29° C. (line 21B)): ~1 log | CFU/g (Meat Normal Flora; [3]): 5,233,644.9 CFU/g and 9,523,809.5 CFU/g | Logs (Meat Normal Flora; [3]): 6.72 Logs and 6.98 Logs | log bacteria reduction versus control (Meat Normal Flora; Experiment 4: 3000 psi @ 29° C. (lines 22C and 23D)): ~1 log | CFU/g (Meat Normal Flora; [4]): 9,029,345.4 CFU/g and 5,154,639.2 CFU/g | Logs (Meat Normal Flora; [4]): 6.96 Logs and 6.71 Logs | log bacteria after the test (Meat Normal Flora; Experiment 5: 3000 psi, 36° C., 5 min (mean of replicates)): 5.53 log | log reduction versus control (Meat Normal Flora; Experiment 5: supercritical, 3000 psi, 36° C., 5 min): ~2 log and 1.83 log
